Laboratory results as given in article PMC7122821, “Molecular basis of P[II] major human rotavirus VP8* domain recognition of histo-blood group antigens” (PLoS Pathogens, 2020).
“And” between values parts separate entries of the source, which are not always exact repeats. Equal entries are not always repeated. “Also recorded” adds a separate entry of the source.

Key:
[1] = molecular target: P[8] VP8* (BM13851) (Rotavirus A, UniProt P11193); experiment: 2D 1H-15N HSQC NMR titration of P[8] VP8* with glycans; format: binding, human RV; settings: for Kd: read-out: dissociation constant (Kd), PBS buffer, global fitting
Method: Chemical shift perturbations were followed by 2D ^1H-^15N HSQC for P[8] VP8*, P[8] mutants, and P[6] VP8* upon titration of each glycan ligand. NMR data were collected with samples in PBS buffer in 5-mm Shigemi NMR tubes on 600-MHz Bruker Avance III or 850-MHz Bruker Avance II NMR spectrometers equipped with conventional 5-mm HCN probes. Samples of 0.20 mM ^15N-labeled P[8] VP8* was titrated with LNDFH I at 0, 0.020, 0.040, 0.80, 1.00, 1.20, 1.40, 1.60, 2.00, 2.80, 3.60, 4.40, 5.00 mM. The same ratio of LNDFH I was titrated to each P[8] mutant as the titration of LNDFH I to wild type P[8]. Samples of 0.31 mM ^15N-labeled P[8] VP8* was titrated with Le^b tetra-saccharide at 0, 0.031, 0.15, 0.31, 0.62, 1.24, 2.49, 4.35, 5.60, 6.84, 7.78, 8.71, 9.33 mM. Samples of 0.24 mM ^15N-labeled P[6] VP8* was titrated with LNFP I at 0, 0.024, 0.12, 0.24, 0.48, 0.96, 1.93, 3.37, 4.34, 5.30, 6.03, 6.75, 7.23, 8.44 mM. Samples of 0.33 mM ^15N-labeled P[6] VP8* was titrated with LNT at 0, 0.033, 0.17, 0.33, 0.69, 1.34, 2.67, 4.68, 6.01, 7.35, 8.35 mM. Spectra were process with NMRPipe software and analyzed with SPARKY [69]. The chemical shift changes upon titration was determined by the following formula [71]: Δδobs=1/2[δH2+(α·δN2)],δH=δHfree−δHbound,δN=δNfree−δNbound . Where δH free and δH bound are the backbone amide hydrogen chemical shifts in the absence and presence of ligand, δN free and δN bound are the amide nitrogen chemical shifts in the free and bound state. The value of Euclidean weighting correction factor α was set to 0.14 [72]. Standard deviation σ of the Euclidean chemical shift change was calculated and threshold value was chosen from 1.5σ to 2.5σ for the VP8*-HBGA by balancing the specificity and sensitivity. Amino acids with chemical shifts greater than the threshold value were used to calculate the dissociation constants. Dissociation constants were obtained by fitting the following equation: Δδobs=Δδmax{([P]t+[L]t+Kd)−[([P]t+[L]t+Kd)^2−4[P]t[L]t]^1/2}/2Pt . Where [P]t and [L]t represent the total concentrations of protein and ligand, Δδobs is the change in the observed chemical shift from the free state, Δδmax is the maximum chemical shift change on saturation, Kd represents the dissociation constant.

[2] = tested on: P[8] VP8*; experiment: STD NMR of glycans with P[8] VP8*; format: binding, human RV; settings: 283 K; 1:50 or 1:56 protein:ligand
Method: (§1) All STD NMR spectra were acquired in Shigemi Tubes (Shigemi, USA) on 600-MHz Bruker Avance III and 850-MHz Bruker Avance II NMR spectrometers equipped with conventional 5-mm HCN probes at 283 K with pulse sequence STDDIFFESGP.3. The NMR samples for P[8] VP8* were prepared as 46 μM P[8] VP8* with 2.3 mM LNDFHI (1:50 protein: ligand ratio), and 33 μM P[8] VP8* with 1.86 mM Le^b tetra-saccharide (1:56 protein: ligand ratio). The NMR samples for P[6] VP* were prepared as 46 μM P[6] with 4.6 mM LNT (1:100 protein: ligand ratio), and 46 μM P[6] with 2.3 mM LNT (1:50 protein: ligand ratio). A control sample was prepared as 40 μM GST with 2.0 mM LNDFHI (1:50 protein: ligand ratio). […] The protein resonances were saturated with a cascade of Gaussian-shaped pulses with a duration of 50 ms, with a total saturation time of 2 s and 4 s. The on resonance was chosen to selectively saturate only the proteins for each sample. […] The STD amplification factors were determined by the equation (ISTD/IO) × molar ratio, where I0 are the intensities of the signals in the reference spectrum, and ISTD are intensities that obtained by subtracting the on-resonance spectrum from the off-resonance spectrum. The normalized STD amplification percentage for epitope mapping was determined by dividing by the largest STD amplification factor for each ligand.

[3] = tested on: glutathione S-transferase (GST); experiment: STD NMR negative control with GST; format: binding; settings: 40 μM GST with 2.0 mM ligand
Method: as §1

[4] = tested on: T78A-P[8] VP8* mutant; experiment: HSQC NMR titration of T78A-P[8] mutant with LNDFH I; format: binding, human RV; settings: same ligand ratio as wild type P[8]
Method: (§2) The VP8* core fragments (amino acids 64 to 223) of the human RV P[8] (BM13851) and P[6] (BM11596) with an N-terminal glutathione S-transferase (GST) tag was overexpressed in Escherichia coli BL21 (DE3) cells as previously described. The P[8] T78A, D79A, K168A, R154A, H177A, and D186A mutations were generated through overlap-extension site mutagenesis, and the sequences were confirmed at the Center for Bioinformatics and Functional Genomics (CBFG) at Miami University. Cells were grown in 1L Luria broth (LB) medium supplemented with 100 μg mL^-1 ampicillin at 310 K. When the OD600 reached 0.8, 0.5 mM isopropyl-β-D-thiogalactopyranoside was added to the medium to induce protein expression. The cell pellet was harvested within 12 h after induction and re-suspended in the phosphate-buffered saline (PBS) buffer (140 mM NaCl, 2.7 mM KCl, 10 mM Na2HPO4, 1.8 mM KH2PO4, pH 7.3). […]
(§3) Chemical shift perturbations were followed by 2D ^1H-^15N HSQC for P[8] […] Spectra were process with NMRPipe software and analyzed with SPARKY [69]. The chemical shift changes upon titration was determined by the following formula [71]: Δδobs=1/2[δH2+(α·δN2)],δH=δHfree−δHbound,δN=δNfree−δNbound . […] Standard deviation σ of the Euclidean chemical shift change was calculated and threshold value was chosen from 1.5σ to 2.5σ for the VP8*-HBGA by balancing the specificity and sensitivity. […]

[5] = tested on: D79A-P[8] VP8* mutant; experiment: HSQC NMR titration of D79A-P[8] mutant with LNDFH I; format: binding, human RV; settings: same ligand ratio as wild type P[8]
Method: as §2, §3

[6] = tested on: K168A-P[8] VP8* mutant; experiment: HSQC NMR titration of K168A-P[8] mutant with LNDFH I; format: binding, human RV; settings: same ligand ratio as wild type P[8]
Method: as §2, §3

[7] = tested on: R154A-P[8] VP8* mutant; experiment: HSQC NMR titration of R154A-P[8] mutant with LNDFH I; format: binding, human RV; settings: same ligand ratio as wild type P[8]
Method: as §2, §3

[8] = tested on: H177A-P[8] VP8* mutant; experiment: HSQC NMR titration of H177A-P[8] mutant with LNDFH I; format: binding, human RV; settings: same ligand ratio as wild type P[8]
Method: as §2, §3

[9] = tested on: D186A-P[8] VP8* mutant; experiment: HSQC NMR titration of D186A-P[8] mutant with LNDFH I; format: binding, human RV; settings: same ligand ratio as wild type P[8]
Method: as §2, §3

[10] = molecular target: P[6] VP8* (BM11596) (Rotavirus A, UniProt D2DXN5); experiment: 2D 1H-15N HSQC NMR titration of P[6] VP8* with glycans; format: binding, human RV
Method: Chemical shift perturbations were followed by 2D ^1H-^15N HSQC for P[8] VP8*, P[8] mutants, and P[6] VP8* upon titration of each glycan ligand. NMR data were collected with samples in PBS buffer in 5-mm Shigemi NMR tubes on 600-MHz Bruker Avance III or 850-MHz Bruker Avance II NMR spectrometers equipped with conventional 5-mm HCN probes. Samples of 0.20 mM ^15N-labeled P[8] VP8* was titrated with LNDFH I at 0, 0.020, 0.040, 0.80, 1.00, 1.20, 1.40, 1.60, 2.00, 2.80, 3.60, 4.40, 5.00 mM. The same ratio of LNDFH I was titrated to each P[8] mutant as the titration of LNDFH I to wild type P[8]. Samples of 0.31 mM ^15N-labeled P[8] VP8* was titrated with Le^b tetra-saccharide at 0, 0.031, 0.15, 0.31, 0.62, 1.24, 2.49, 4.35, 5.60, 6.84, 7.78, 8.71, 9.33 mM. Samples of 0.24 mM ^15N-labeled P[6] VP8* was titrated with LNFP I at 0, 0.024, 0.12, 0.24, 0.48, 0.96, 1.93, 3.37, 4.34, 5.30, 6.03, 6.75, 7.23, 8.44 mM. Samples of 0.33 mM ^15N-labeled P[6] […] Spectra were process with NMRPipe software and analyzed with SPARKY [69]. The chemical shift changes upon titration was determined by the following formula [71]: Δδobs=1/2[δH2+(α·δN2)],δH=δHfree−δHbound,δN=δNfree−δNbound . […] Standard deviation σ of the Euclidean chemical shift change was calculated and threshold value was chosen from 1.5σ to 2.5σ for the VP8*-HBGA by balancing the specificity and sensitivity. […]

[11] = tested on: P[6] VP8*; experiment: STD NMR of glycans with P[6] VP8*; format: binding, human RV; settings: 283 K
Method: as §1

[12] = tested on: P[8] VP8*; design: method as in PMID 31226167; settings: cited from earlier work

Structure (SMILES): CC(=O)NC1C(OC2C(O)C(CO)OC(OC3C(CO)OC(O)C(O)C3O)C2O)OC(CO)C(OC2OC(C)C(O)C(O)C2O)C1OC1OC(CO)C(O)C(O)C1OC1OC(C)C(O)C(O)C1O (stereo not drawn) [LNDFH I, lacto-N-difucohexaose I]
- Kd [1]: 6.3 mM and 6.29 mM
- binding to P[8] VP8* by STD NMR [2]: found to bind
- STD NMR signal with GST (negative control) [3]: did not show significant signal intensities
- binding to T78A-P[8] mutant [4]: retained binding to the glycan
- binding to D79A-P[8] mutant [5]: retained binding to the glycan
- binding to K168A-P[8] mutant [6]: retained binding to the glycan
- binding to R154A-P[8] mutant [7]: significant loss of binding to the glycan
- binding to H177A-P[8] mutant [8]: significant loss of binding to the glycan
- binding to D186A-P[8] mutant [9]: significant loss of binding to the glycan

Structure (SMILES): CC(=O)NC1C(OC2C(O)C(CO)OC(OC3C(CO)OC(O)C(O)C3O)C2O)OC(CO)C(O)C1OC1OC(CO)C(O)C(O)C1OC1OC(C)C(O)C(O)C1O (stereo not drawn) [LNFP I, lacto-N-fucopentaose I]
- Kd [1]: 23.5 mM
- Kd [10]: 13.6 ± 1.7 mM
- binding to P[6] VP8* by STD NMR [11]: bound

Structure (SMILES): CC(=O)NC1C(OC2C(O)C(CO)OC(OC3C(CO)OC(O)C(O)C3O)C2O)OC(CO)C(O)C1OC1OC(CO)C(O)C(O)C1O (stereo not drawn) [LNT, lacto-N-tetraose]
- binding to P[8] VP8* in HSQC titration [1]: little binding signal; also recorded: did not recognize
- Kd [10]: 2.5 ± 0.2 mM
- binding to P[6] VP8* by STD NMR [11]: bound

Structure (SMILES): CC(=O)NC1C(O)OC(CO)C(OC2OC(C)C(O)C(O)C2O)C1OC1OC(CO)C(O)C(O)C1OC1OC(C)C(O)C(O)C1O (stereo not drawn) [Le^b tetra-saccharide, Fucα1-2Galβ1–3[Fucα1–4]GlcNAc]
- Kd [1]: 20.3 ± 4.8 mM
- binding to P[8] VP8* by STD NMR [2]: found to bind

Structure (SMILES): CC(=O)N[C@H]1C(O)O[C@H](CO)[C@@H](O)[C@@H]1O[C@@H]1O[C@H](CO)[C@H](O)[C@H](O)[C@H]1O (stereo partly drawn) [lacto-N-biose]
- affinity relative to H1 trisaccharide [12]: two-fold weaker affinity
